Patent publication US20210161918A1, “TIGECYCLINE FOR TOPICAL TREATMENT OF ROOT CANAL SPACE” (THE UNIVERSITY OF NORTH CAROLINA AT CHAPEL HILL, priority 2018, published 2021)
Marks after values point to notes of the source that are not given here.

What was measured:
[1] = test system: Enterococcus faecalis (ATCC 4083), Streptococcus intermedius (ATCC 31412), Fusobacterium nucleatum (ATCC 49256), Porphyromonas gingivalis (ATCC 33277); assay: MIC and MBC by E-test; assay type: cell-based
Experimental: Four common endodontic pathogens were selected for the study: Enterococcus faecalis (ATCC 4083), Streptococcus intermedius (ATCC 31412), Fusobacterium nucleatum (ATCC 49256), and Porphyromonas gingivalis (ATCC 33277). […] Then, each microorganism was cultured in their recommended broth as follow; brain heart infusion (BHI) broth for […], Todd Hewitt broth for S. intermedius, chopped meat for F. nucleatum, and tryptic soy broth supplemented with hemin and vitamin K for P. gingivalis. […] One-way analysis of variance (ANOVA), followed by the Tukey's HSD (with p<0.05) was used for the four microorganisms to compare: A) the MICs and MBCs among tested antibiotics, B) the difference between baseline CFUs and post-treatment CFUs for different antibiotics/scaffold formulations and, C) the changes in color among the groups.

[2] = Crown color change measurement (tooth discoloration, CIE L*a*b*); design: species or system human
Excerpt: (§1) One hundred and twenty intact single rooted permanent human teeth were collected for the study. All teeth were autoclaved, then access cavities were prepeared and the canal instrumented to size 40/0.04, with saline irrigation. Teeth were autoclaved again to ensure absence of bacteria prior to bacterial inoculation. The root canals were then inoculated with the bacterial mixture, using syringe delivery, with the 30-gauge needle close to the working length. Access cavities were then sealed with a sterile sponge and Cavit (3M ESPE). All teeth were then incubated in the anaerobic chamber. The suspensions were replenished weekly for 3 weeks to allow for biofilm formation and maturation (14).
Crown color was measured as described previously (16). All color measurements were taken in a dark room inside the anaerobic chamber. The instrument was calibrated before the measurement in each group. • The mean baseline color measurements were taken prior to filling the root canal with the antibiotics (C0) and then at 1 week (C1), 2 weeks (C2), and 3 weeks (C3). The results were expressed in the CIE L*a*b* system (L* [black-white], a* [red-green] and b* [blue-yellow]). • Mean color change (ΔE) value was calculated using the following formula; […].
One-way analysis of variance (ANOVA), followed by the Tukey's HSD (with p<0.05) was used for the four microorganisms to compare: A) the MICs and MBCs among tested antibiotics, B) the difference between baseline CFUs and post-treatment CFUs for different antibiotics/scaffold formulations and, C) the changes in color among the groups.

[3] = test system: polymicrobial biofilm of E. faecalis, S. intermedius, F. nucleatum and P. gingivalis in root canals; assay: Post-treatment CFUs in ex vivo root canals inoculated with bacterial mixture (3-week biofilm), dressed with antibiotics/hydrogel scaffolds; assay type: cell-based; conditions: for samples with bacterial growth: n=15 per group; for Log10 CFUs: 1 week dressing
Excerpt: as §1

[4] = comparison among tested antibiotics, P<0.05

With O=C(O)c1cn(C2CC2)c2cc(N3CCNCC3)c(F)cc2c1=O [Ciprofloxacin, ciprofloxacin] as the compound, how does the “Minimum Bactericidal Concentration (MBC)” value [1, 4] read?
The value was “significantly higher”.

What about the “Minimum Inhibitory Concentration (MIC)” value [1, 4] of the same compound?
Its value is “significantly higher”.

Which “mean color change (ΔE)” value ([2]; 1 mg/mL, one week post-treatment) does the source give for CN(C)c1cc(NC(=O)CNC(C)(C)C)c(O)c2c1C[C@H]1C[C@H]3[C@H](N(C)C)C(O)=C(C(N)=O)C(=O)[C@@]3(O)C(O)=C1C2=O [Tigecycline] here?
Its value is 6.9±1.9.

And the “mean color change (ΔE)” value ([2]; 1 mg/ml, 2 and 3 weeks post-treatment)?
Its value is 8.4±2.0.

And the tooth discoloration ([2]; greater than 1 mg/ml to about 10 mg/mL, after applying an inner bonding within the coronal endodontic access preparation)?
Its tooth discoloration is “no detectable discoloration”.

What about the “samples with bacterial growth” value ([3]; 0.1 mg/mL) of the same compound?
Its value is 93.3%.

And the “Log10 CFUs” value ([3]; 0.1 mg/ml in hydrogel scaffold)?
Its value is 3.38 ^b.

What about the “samples with bacterial growth” value ([3]; 1 mg/mL) of the same compound?
The value was 33.3%.

What about the “Log10 CFUs” value ([3]; 1 mg/ml in hydrogel scaffold) of the same compound?
Its value is 0.93 ^c.

With Cc1ncc([N+](=O)[O-])n1CCO [metronidazole] as the compound, how does the inhibition zone ([1]; against any of tested microorganisms) read?
Its inhibition zone is “no inhibition zone”.
